The record followed here is article PMC4697807, “Novel Zn^2+ Modulated GPR39 Receptor Agonists Do Not Drive Acute Insulin Secretion in Rodents” (PLoS ONE, 2015).

What all share (type): in vivo, mouse
The test system of one data set is DIO mice. The data set can be described thus: IPGTT in DIO mice. Conditions: 100 mg/kg group, IP; group terminated. The text has this:
(§1) Six-week-old male C57BL/6J mice were purchased from CLEA (Tokyo, Japan). Fourteen-week-old and fifteen-week-old male DIO mice were purchase from Charles River Japan (Yokohama, Japan). They were used after at least one week acclimation period. C57BL/6J mice were allowed free access to a normal diet (CRF-1, Oriental Yeast, Tokyo, Japan). DIO mice were allowed free access to a high-fat diet with 60 kcal% fat (D12492, Research Diets, New Brunswick, NJ). They were kept under standard 12-h light/dark cycle. Animal experiments were approved by the Institutional Animal Care and Use Committee of Mitsubishi Tanabe Pharma Corporation.
Fifteen-week-old and twenty one-week-old DIO mice were used. The mice were fasted for 3 h and were randomly grouped based on the body weight. Five ml/kg of a solution of vehicle (10% DMF/18% Cremophore) or compounds were administered IP. Thirty min later, 1.0 g/10 ml/kg of glucose solution was administered IP. Blood samples were obtained from the tail vein at -30, 0, 15, 30, 60, and 120 min after glucose challenge. Plasma glucose and insulin were measured.
Statistical analysis was performed using SAS9.1.3 with student’s t-test or Dunnett’s test. All data were expressed as mean ± standard error of mean (SEM). P values of <0.05 were considered to be statistically significant.

A short description of data set [1]: Unbound plasma exposure in the IPGTT. Conditions: 0-30 min after glucose challenge; IP; lean mice. The method, then:
Plasma protein binding of test compound was examined by an equilibrium dialysis method. The compound was mixed with blank mouse plasma to a concentration of 10 μM. The plasma sample and PBS were added to a sample chamber and a buffer chamber of an equilibrium dialysis device, respectively. The device was incubated for 4 h at 37°C in a CO2 incubator (oscillation: 180 rpm). After incubation, an aliquot in each chamber was collected. They were mixed with acetonitrile/methanol (50/50, v/v) and were centrifuged. The supernatants were analyzed by LC-MS/MS. Plasma unbound fraction (f) was calculated by Eq 2, f=Cf/Ct (2) where Cf and Ct represent the compound concentration in the buffer and sample chamber, respectively. […]
The unbound plasma concentrations were calculated by correcting the total plasma concentration derived from the LC/MS analysis by the free fraction, f u. The exposure in terms of the area under the unbound concentration-time curve in the interval 30–60 min after drug administration AUCu 30–60min, i.e. the interval 0–30 min after glucose challenge, was calculated using the linear up-log down trapezoidal method in the non compartmental module of Phoenix 6.2 (Pharsight). […] The ratio between C u,av and the EC 50 of the different in vitro potency assays was calculated for each compound and dose administered.

The test system of a further data set is C57BL/6J mice. The data set can be described thus: Intraperitoneal glucose tolerance test (IPGTT) in C57BL/6J mice. The conditions noted are these: 30 and 100 mg/kg IP, 30 min before 1.5 g/kg glucose IP; fasted lean mice.
From the text: as §1
Seven-week-old and eight-week-old C57BL/6J mice were used. Mice were fasted overnight and were randomly grouped. Five ml/kg of a solution of vehicle (10% dimethylformamide (DMF)/18% Cremophore) or compounds were intraperitoneally (IP) administered. Thirty min later, 1.5 g/20 ml/kg of glucose solution was IP administered. […] Plasma glucose was measured using Glucose CII Test Wako Kit (Wako Pure Chemical Industries, Osaka, Japan). Plasma insulin was measured using Ultra Sensitive Mouse Insulin ELISA Kit (Morinaga, Yokohama, Japan).
Statistical analysis was performed using SAS9.1.3 with student’s t-test or Dunnett’s test. All data were expressed as mean ± standard error of mean (SEM). […]

In the case of `N#Cc1ccc(OCCn2ccnc2)c(OCCn2ccnc2)c1` [AZ1395, 3,4-bis-(2-imidazol-1-ylethoxy)-benzonitrile], the adverse findings result in the data set with DIO mice is “severe hyperglycemia and associated morbidity/mortality in some animals”. On to `Cc1nc2c(C(=O)O)cnn2c(O)c1Cc1ccc(Cl)cc1` [AZ4237, 6-[(4-chlorophenyl)methyl]-7-hydroxy-5-methyl-pyrazolo[1,5-a]pyrimidine-3-carboxylic acid], for which the “average in vivo exposure (C u,av), unbound” value in data set [1] was found to be 19 µM. Moreover, the insulinotropic effect entry with C57BL/6J mice is given as “did not elicit insulinotropic effects in vivo”. For `Cc1nc(-c2nc3c(c(=O)[nH]2)CN(C(=O)c2cccc(Cl)c2F)CC3)cs1` [AZ7914, 6-(3-chloro-2-fluoro-benzoyl)-2-(2-methylthiazol-4-yl)-3,5,7,8-tetrahydropyrido-[4,3-d]pyrimidin-4-one] the same measures were 29 µM and “did not elicit insulinotropic effects in vivo”.
